Test results published in patent publication US7429396B2, “Antifungal composition, its fungicidal effect on pathogenic dermatophytes, and process for inhibiting growth of fungi” (Bio-Botanica, Inc., priority 2003, dated 2008).
Values joined by “and” are separate entries in the source; they are usually repeats but may differ in a detail not shown here. Equal entries are not always repeated.

Tests used:
[1] = tested on: S. typhimurium ATCC 14028; assay: Agar Dilution susceptibility method (Example 5); type: cell-based, Salmonella typhimurium
Method: (§1) The Agar Dilution susceptibility method was used to test the effectiveness of the antimicrobial composition of Example 1. The organisms used were S. aureus ATCC 29213, E. coli ATCC 25922, S. typhimurium ATCC 14028, K. pneumoniae ATCC 10031, P. aeruginosa ATCC 27853, C. albicans ATCC 10231, and M. smegmatis ATCC 14468. The organisms were maintained on Tryptic Soy Agar (TSA) slants. For each week, the organisms were cultured in 10 ml of Tryptic Soy Broth (TSB). After incubation at 37° C. for 17 hours (48 hours for M. smegmatis), the organism suspensions were diluted with 10 ml of sterile saline as shown in Table 4. The mold Aspergillus niger was sustained on a Sabouraud Dextrose Agar slant. The sample was then cultured in 10 ml of Tryptic Soy Broth and incubated for 7 days at 22° C. The mold was then diluted in 0.1% Tween 80 in saline. The diluted bacteria and yeast organisms were then inoculated onto the prepared sample plates with a 1 μl loop. The mold Aspergillus niger was added to prepared sample tubes with a 100 μl pipette.
(§2) Phenyloxyethanol (PE), phenylethyl alcohol (PEA) and methyl/propylparabens (MP) in a ratio of 5:4 were initially screened at their commonly recommended effective concentrations of 0.3% v/v (3 μl/ml); 1% v/v (10 μl/ml); and 0.18% w/v (1 mg methyl and 0.8 mg propylparaben/ml), respectively. The antimicrobial agent was used at an initial concentration of 0.15% v/v (1.5 μl/ml).
(§3) The sample plates for the bacteria and yeast were prepared as follows: • Prepare 10 ml tubes of TSA and allow to cool to 50° C., • Add the calculated amount of the preservative or antimicrobial agent to 100 μl dimethylsulfoxide (DMSO) to achieve the specified concentration per ml TSA when 100 μl of the DMSO solution are added to a test tube containing 10 ml of TSA, • Vortex to homogenize the mixture in TSA, • Pour TSA and the preservative or antimicrobial agent into a properly labeled Petri dish, • Allow to cool overnight at room temperature.
(§4) The prepared sample plates were divided into seven sections and the plates labeled according to the preservative or antimicrobial agent. Each section was labeled according to the microorganism to be applied to each section. The diluted organism suspensions were inoculated onto their appropriate section with a 1 μl loop, streaking radially from the center to the outer edge of the plate. A positive control plate was prepared without a preservative or antimicrobial agent of Example 1. The plates were then incubated at 37° C. for 48 hours, recording the results at 24 and 48 hours.
Growth (G) was noted when there was full growth visible and the organism was not affected. […]
In this example and the tables, the amount of the antimicrobial agent is expressed in terms of the volume of antimicrobial sample. […]

M. smegmatis ATCC 14468 = assay: Agar Dilution susceptibility method (Example 5); type: cell-based, Mycobacterium smegmatis
Method: as §1, §2, §3, §4
(§5) The results for the bacteria and yeast were scored in relation to the growth present on the positive control plate. Growth (G) was noted when there was full growth visible and the organism was not affected. […]

P. aeruginosa ATCC 27853 = assay: Agar Dilution susceptibility method (Example 5); type: cell-based, Pseudomonas aeruginosa
Method: as §1, §2
(§6) The sample plates for the bacteria and yeast were prepared as follows: • Prepare 10 ml tubes of TSA and allow to cool to 50° C., • Add the calculated amount of the preservative or antimicrobial agent to 100 μl dimethylsulfoxide (DMSO) to achieve the specified concentration per ml TSA when 100 μl of the DMSO solution are added to a test tube containing 10 ml of TSA, • Vortex to homogenize the mixture in TSA, • Pour TSA and the preservative or antimicrobial agent into a properly labeled Petri dish, • Allow to cool overnight at room temperature. […]
(§7) The results for the bacteria and yeast were scored in relation to the growth present on the positive control plate. […]

[2] = tested on: all microorganisms tested; assay: Agar/broth dilution, inhibition of all microorganisms tested (Example 5); type: cell-based
Method: as §1, with “The sample was then cultured in 10 ml of Tryptic Soy Broth and incubated for 7 days at 22° C. The mold was then diluted in 0.1% Tween 80 in saline. The diluted bacteria and yeast organisms were then inoculated onto the prepared sample plates with a 1 μl loop. The mold Aspergillus niger was added to prepared sample tubes with a 100 μl pipette.” left out
as §6, §7

A. niger ATCC 16404 = assay: Broth tube susceptibility test of the mold (Example 5); type: cell-based, Aspergillus niger
Method: as §1
The sample for the mold Aspergillus niger was prepared as follows: • Prepare 10 ml tubes of Tryptic Soy Broth (TSB), • Add the calculated amount of the sample to 100 μl dimethylsulfoxide (DMSO) to achieve the specified concentration per ml TSB. Then 100 μl of the DMSO is added to a test tube containing 10 ml of TSB, • Vortex to homogenize the mixture in TSB, • Add 100 μl of Aspergillus niger suspension to a tube of TSB not inoculated with any sample as a positive control.
The prepared sample tubes were inoculated with 100 μl of the mold Aspergillus niger suspension to produce a final mold spore concentration in each sample tube of 1×10^4 to 1×10^5 spores/ml. The prepared sample tubes of TSB were incubated at 37° C. for 5 days with the results being recorded at 3 and 5 days.
The results for Aspergillus niger were scored in relation to the growth present in the positive control tube. The growth (G) was noted when there was full growth visible as determined by the tube appearing cloudy to the same extent as the positive control tube. Partial activity (P) was recorded when the sample tube of TSB was less turbid than the control tube. No growth (I) was recorded when there was total inhibition and broth in the tube appeared clear.
(§8) In this example and the tables, the amount of the antimicrobial agent is expressed in terms of the volume of antimicrobial sample. The concentration of the antimicrobial agent of 1 μl/ml corresponds to 1 mg (milligram)/ml of the antimicrobial agent. The MIC obtained was confirmed by three consecutive results. DMSO was used to solubilize the test samples and help to diffuse the lipophilic ingredients into the agar. DMSO was used at a concentration not exceeding 1%.

C. albicans ATCC 10231 = assay: Agar Dilution susceptibility method (Example 5); type: cell-based, Candida albicans
Method: as §1, §2, §3, §4, §5

E. coli ATCC 25922 = assay: Agar Dilution susceptibility method (Example 5); type: cell-based, Escherichia coli
Method: as §1, §2, §3, §4, §5

K. pneumoniae ATCC 10031 = assay: Agar Dilution susceptibility method (Example 5); type: cell-based, Klebsiella pneumoniae
Method: as §1, §2, §3, §4, §5, §8

OCCc1ccccc1 [Phenylethyl Alcohol]
2.5 μl/ml and 3.0 μl/ml: Minimum Inhibitory Concentration (MIC) (sample/ml of agar or broth) (C. albicans ATCC 10231)
I: growth score ([1]; 3.0 μl/ml) | growth score ([1]; 5.0 μl/ml) | growth score ([1]; 6.0 μl/ml) | growth score (M. smegmatis ATCC 14468; 3.0 μl/ml) | growth score (M. smegmatis ATCC 14468; 5.0 μl/ml) | growth score (M. smegmatis ATCC 14468; 6.0 μl/ml) | growth score (P. aeruginosa ATCC 27853; 5.0 μl/ml) | growth score (P. aeruginosa ATCC 27853; 6.0 μl/ml) | growth score (A. niger ATCC 16404; 3.0 μl/ml) | growth score (A. niger ATCC 16404; 5.0 μl/ml) | growth score (A. niger ATCC 16404; 6.0 μl/ml) | growth score (C. albicans ATCC 10231; 3.0 μl/ml) | growth score (C. albicans ATCC 10231; 5.0 μl/ml) | growth score (C. albicans ATCC 10231; 6.0 μl/ml) | growth score (E. coli ATCC 25922; 3.0 μl/ml) | growth score (E. coli ATCC 25922; 5.0 μl/ml) | growth score (E. coli ATCC 25922; 6.0 μl/ml) | growth score (K. pneumoniae ATCC 10031; 1.5 μl/ml) | growth score (K. pneumoniae ATCC 10031; 3.0 μl/ml) | growth score (K. pneumoniae ATCC 10031; 5.0 μl/ml) | growth score (K. pneumoniae ATCC 10031; 6.0 μl/ml)
2.5 μl/ml: Minimum Inhibitory Concentration (MIC) (sample/ml of agar or broth) (M. smegmatis ATCC 14468) | Minimum Inhibitory Concentration (MIC) (sample/ml of agar or broth) (A. niger ATCC 16404)
5.0 μl/ml: Minimum Inhibitory Concentration (MIC) (sample/ml of agar or broth) [1] | Minimum Inhibitory Concentration (MIC) (sample/ml of agar or broth) (P. aeruginosa ATCC 27853) | Minimum Inhibitory Concentration (MIC) (sample/ml of agar or broth) (E. coli ATCC 25922) | Minimum Inhibitory Concentration (MIC) (sample/ml of agar or broth) (K. pneumoniae ATCC 10031)
6.0 μl/ml: MIC capable of inhibiting all the tested organisms [2]
